Reference: patent US20200046836A1, “Terpene Carrier” (priority 2015, published 2020)
Where two headings read alike, the source gives them in different places.

Tests used:
[1] = cited from earlier work
[2] = reported; cited from earlier work
[3] = Amount of lipophilic active ingredient that the carrier can hold in solution; type: physicochemical; details: Example 7

In the case of `C=CC(=C)CCC=C(C)C` [Myrcene], the “LD50 (Lethal Dose)” value ([1]; in vivo) is listed as greater than 5000 mg/kg.
For `C=C1CC/C=C(\C)CC[C@@H]2[C@@H]1CC2(C)C` [Beta-caryophyllene], the “LD50 (Lethal Dose)” value ([1]; in vivo) is listed as greater than 5000 mg/kg.
For `C=CC(C)(O)CCC=C(C)C` (stereo not shown) [Linalool], the “LD50 (Lethal Dose)” value ([1]; in vivo) is given as 3000 mg/kg.
For `CN1CCCC1c1cccnc1` (stereo not shown) [nicotine, reference compound], the “LD50 (Lethal Dose)” value ([1]; nicotine as comparison) is given as 40 to 60 mg/kg.
In the case of `CCCCCc1cc(O)c2c(c1)OC(C)(CCC=C(C)C)C=C2` (stereo not shown) [CBC, cannabichromene], the “effectiveness relative to CBD in the treatment of anxiety and stress” value [2] is listed as “about ten times more effective than CBD”.
For `C=C(C)[C@@H]1CCC(C)=C[C@H]1c1c(O)cc(CCCCC)cc1O` [CBD, cannabidiol], the “keeping CBD in solution in the propylene glycol/glycerine mixture” value ([3]; control carrier) was “difficult to maintain 10% by weight” and the “CBD content of solution that could be prepared in the terpene mixture” value ([3]; terpene mixture) was “at least 30 % by weight”.
